# Data from PubChem BioAssay AID602217 (Sanford-Burnham Center for Chemical Genomics, 2012).
# Activity calls are given as the source filed them.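 How the source made its calls: active means IC50 at or below a set limit; inactive means the rest.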
# Tested on: HL-1 cardiomyocytes, 2-deoxyglucose injury, ATPLite luminescence, 2 h
# Test: 2-DG-induced HL-1 ATP loss suppression – cell-based, ATPLite luminescence, dose response (AID 602217);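 further: cells kept in glucose-free DMEM during the 2-deoxyglucose injury; potency of protection where actives preserve ATP signal against 2-deoxyglucose stress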
row,Compound,IC50
1,COc1ccc(-c2csc(NC(=O)c3cccc(N4C(=O)CCC4=O)c3)n2)cc1OC,29.9 µM (inactive)
2,COc1cc(Nc2nc3ccccc3n3nnnc23)cc(OC)c1OC,> 79 µM (inactive)
3,Brc1cc2c(cc1/C=N/Nc1nc(N3CCCC3)nc(N3CCOCC3)n1)OCO2,> 79 µM (inactive)
4,COc1cc(-c2cc(NC(C)=O)c3ncc(-c4ccc(C(C)=O)cc4)n3c2)cc(OC)c1OC,> 79 µM (inactive)
5,Cc1cccc(NC(=O)c2oc3ccc(S(=O)(=O)N4CCOCC4)cc3c2C)c1C,30.5 µM (inactive)
6,CN(C(=O)c1sc2nc(N3CCOCC3)c3c(c2c1N)CCCC3)c1ccccc1,> 79 µM (inactive)
7,O=C(Nc1ccccc1)c1nc[nH]c1C(=O)NCCNC(=O)c1[nH]cnc1C(=O)Nc1ccccc1,4.82 µM
8,COC(=O)c1cc2c(-c3ccccc3)cc3ccccn3c-2c1C(=O)OC,> 79 µM (inactive)
9,CCOc1ccccc1Nc1nnc(SCc2nnc(-c3cc(OC)c(OC)c(OC)c3)o2)s1,14.6 µM
10,CC(C)(C)OC(=O)CNC(=O)c1[nH]cnc1C(=O)NCC(=O)OCc1ccccc1,21.7 µM (inactive)
11,COc1ccc(C(=O)Nc2cccc(/C(C)=N/NC(=O)c3ccc([N+](=O)[O-])c(C)c3)c2)cc1OC,5.18 µM
12,CCOc1ccc(C(C(=O)NC2CCCC2)N(C(=O)c2snc(C(N)=O)c2N)c2cccc(O)c2)cc1 (centres undefined),13.1 µM
13,CCOc1cc(-c2cc(-c3ccc(N)cc3)nc(N)c2C#N)ccc1O,> 79 µM (inactive)
14,Fc1ccc(-n2cc(-c3ccccc3)c3c(N4CCOCC4)ncnc32)cc1,8.35 µM
15,COc1ccc(-c2csc(NC(=O)c3ccc(OCC(=O)N4CCOCC4)c(OC)c3)n2)cc1OC,> 79 µM (inactive)
16,COc1cc(C(=O)NCC(=O)N/N=C/c2ccc(-c3cccc([N+](=O)[O-])c3)o2)cc(OC)c1OC,> 79 µM (inactive)
17,COc1ccc(/C=N/NC(=O)c2ccc(COc3cccc4cccnc34)cc2)cc1OC,> 79 µM (inactive)
18,COc1ccc(CCNC(=O)C(=O)NCC2CCCN2S(=O)(=O)c2ccccc2)cc1OC (centres undefined),45.9 µM (inactive)
19,CC(=O)Nc1cc(-c2cccc(NS(C)(=O)=O)c2)cn2c(-c3cccc(C(C)=O)c3)cnc12,36.4 µM (inactive)
20,CCOC(=O)C1CCN(c2cc3c(cc2NC(=O)c2ccccc2Cl)n(C)c(=O)n3C)CC1,> 79 µM (inactive)
21,COc1ccc(-c2ccc3c(c2)S(=O)(=O)c2cccc(C(=O)N4CCN(c5c(Cl)cncc5Cl)CC4)c2C3=O)cc1OC,13.7 µM
22,Cn1c(=O)c2[nH]c(NN=Cc3ccc(Br)cc3)nc2n(C)c1=O,10.2 µM
23,Nc1c(C(=O)N/N=C/c2cccnc2)oc2nc(-c3ccccc3)cc(-c3ccco3)c12,> 79 µM (inactive)
24,COc1cc(-c2cnc3c(NC=O)cc(-c4cccnc4)cn23)cc(OC)c1OC,7.57 µM
25,COc1cccc(Nc2nc3ccccc3n3cnnc23)c1,> 79 µM (inactive)

row,Compound,IC50
1,COc1cc(-c2cc3nc(NCCc4ccc(S(N)(=O)=O)cc4)ccn3n2)cc(OC)c1OC,48.7 µM (inactive)
2,COc1ccc(-n2c(/C=C/c3ccc(O)c(OC)c3)nc3ccccc3c2=O)cc1,21.3 µM (inactive)
3,Cc1ccc(-n2cc(-c3ccccc3)c3c(N4CCOCC4)ncnc32)cc1,7.85 µM
4,CCOC(=O)c1c(C)[nH]c(C)c1C(=O)COc1ncnc2cc([N+](=O)[O-])ccc12,> 79 µM (inactive)
5,COc1cc(-c2cc3nc(NCCOc4ccccc4)ccn3n2)cc(OC)c1OC,> 79 µM (inactive)
6,COc1cccc(-c2cnc3c(NC=O)cc(-c4cc(OC)c(OC)c(OC)c4)cn23)c1,> 79 µM (inactive)
7,CCc1nc2ccc(C(=O)Nc3cc(-c4ccccc4)ccc3OC)cn2c1N(C)Cc1nccs1,> 79 µM (inactive)
8,C=CCOC(=O)C1=C[C@H](c2cn(C(C)=O)c3ccccc23)C[C@H](OCc2ccc(CO)cc2)O1,> 79 µM (inactive)
9,COc1cc(/C=C/c2nnc3c4ccccc4ncn23)cc(OC)c1OC,31.9 µM (inactive)
10,N#Cc1c(-c2ccco2)cc(-c2cccnc2)nc1N,14.6 µM
11,CCN(CC)C(=O)c1[nH]cnc1C(=O)NCC(=O)OCc1ccccc1,69.9 µM (inactive)
12,NC(=O)c1cc2ccccc2o/c1=N\NC(=O)c1ccc(F)cc1,> 79 µM (inactive)
13,COc1cccc(-c2cnc3c(NC(C)=O)cc(-c4cccc(NS(C)(=O)=O)c4)cn23)c1,> 79 µM (inactive)
14,O=C(CCCN1C(=O)c2cccc3cccc(c23)C1=O)N1CCN(c2ccccc2O)CC1,27.4 µM (inactive)
15,Cc1ccc(C=NNc2nc3c([nH]2)c(=O)n(C)c(=O)n3C)cc1,> 79 µM (inactive)
16,O=C(c1ccc(-c2nc3ccccc3s2)o1)N1CCN(c2ccccc2O)CC1,> 79 µM (inactive)
17,COc1ccc(-c2cc(NC=O)c3ncc(-c4ccc(C(C)=O)cc4)n3c2)cn1,22.2 µM (inactive)
18,CCOc1ccc2nc(NC(=O)CN3CCC(n4nnc5cc(F)ccc54)CC3)sc2c1,9.48 µM
19,CC(=O)Nc1cc(-c2ccc(C(=O)NC3CC3)cc2)cn2c(-c3cccc(C(C)=O)c3)cnc12,12.7 µM
20,CC1Nc2ncnc(N3CCN(c4ccccc4)CC3)c2N(Cc2ccc(Cl)cc2)C1=O (centres undefined),1.95 µM
21,O=C(CNC(=O)c1[nH]cnc1C(=O)NC(c1ccccc1)c1ccccc1)OCc1ccccc1,> 79 µM (inactive)
22,CC(C)c1ccccc1NC(=O)COC(=O)c1c2c(nc3ccccc13)CCN(Cc1ccccc1)C2,> 79 µM (inactive)
23,NC(=O)COc1ccc2oc(=O)cc(-c3cc4ccccc4o3)c2c1,> 79 µM (inactive)
24,O=C(Nc1cc(S(=O)(=O)N2CCOCC2)ccc1N1CCCCC1)c1cc(-c2ccccn2)nc2ccccc12,21 µM (inactive)
25,NC(=O)c1nsc(C(=O)N(c2ccccc2)C(C(=O)NC2CCCC2)c2ccc3ncccc3c2)c1N (centres undefined),13.2 µM

row,Compound,IC50
1,COc1ccc(-c2ccc3c(c2)S(=O)(=O)c2cccc(C(=O)NC[C@@H]4CCCO4)c2C3=O)cc1OC,> 79 µM (inactive)
2,COc1ccc2[nH]c(=O)c(CN(Cc3cccnc3)S(=O)(=O)c3ccccc3F)cc2c1,18.2 µM
3,COc1ccc(C(C(=O)NC2CCCC2)N(C(=O)c2snc(C(N)=O)c2N)c2cccc(O)c2)cc1 (centres undefined),40.9 µM (inactive)
4,COc1cc(C(=O)N/N=C/c2ccc(OC(=O)c3cccc(C)c3)c(OC)c2)ccc1O,> 79 µM (inactive)
5,COc1cc(NC(=O)c2cc3ccccc3cc2OC)ccc1NC(=O)c1cccs1,5.85 µM
6,CC(=O)c1ccc(-c2cnc3c(NC=O)cc(-c4cccc(C(=O)N(C)C)c4)cn23)cc1,> 79 µM (inactive)
7,CC(C)(C)NC(=O)COC(=O)c1c2c(nc3ccccc13)CCC2,23.7 µM (inactive)
8,COc1cc(OC)cc(-c2cc3nc(C)c(CCC(=O)Nc4nc(C)cs4)c(C)n3n2)c1,> 79 µM (inactive)
9,CCn1c(O)c(/C=N/N=C/c2ccccc2)c2ccc(C3=NNC(=O)CC3)cc21,18.1 µM
10,COc1ccc(C(=O)O/N=C(/c2ccccc2)c2ccncc2)cc1OC,> 79 µM (inactive)
11,CC(OC(=O)c1cc(-c2cccnc2)nc2ccccc12)C(=O)Nc1ccc2ccccc2c1 (centres undefined),> 79 µM (inactive)
12,CC(=O)c1ccc(-c2cnc3c(NC=O)cc(-c4cccc(NS(C)(=O)=O)c4)cn23)cc1,> 79 µM (inactive)
13,CC(C)(C)OC(=O)C[C@@H]1C/C=C\C[C@@H](CC(=O)N[C@@H](CO)Cc2ccccc2)C(=O)NC[C@@H](c2ccccc2)OC1=O,> 79 µM (inactive)
14,O=C(CNC(=O)c1nc[nH]c1C(=O)NCC(=O)OCc1ccccc1)OCc1ccccc1,> 79 µM (inactive)
15,Cc1cc(N)n(-c2nc(-c3cccnc3)nc3ccccc23)n1,> 79 µM (inactive)
16,CCN(CC(=O)Nc1ccc(OC)cc1)C(=O)c1cc(-c2cccs2)nn1-c1ccccc1,17.6 µM
17,CC(C)(C)NC(=O)c1cc(NC(=O)c2cccs2)cc(NC(=O)c2cccs2)c1,> 79 µM (inactive)
18,COc1ccccc1NC(=O)c1cc(-c2ccc(OC)c(OC)c2)nc2ccccc12,15.6 µM
19,Cc1nc(N2CCN(c3ccccn3)CC2)c2c(C)c(C(=O)Nc3ccc(F)cc3)sc2n1,> 79 µM (inactive)
20,COc1ccc(C(=O)Nc2cccc(NC(=O)c3ccc(OC)c(OC)c3)n2)cc1OC,11.2 µM
21,COc1ccc(CCNc2nc(-c3cccnc3)nc3ccccc23)cc1OC,55 µM (inactive)
22,COc1ccc(-c2cc(-c3nnc(COC(=O)C4CC4C)o3)c3ccccc3n2)cc1OC (centres undefined),> 79 µM (inactive)
23,COc1ccc(N(CC(=O)Nc2cccc(C(C)=O)c2)S(=O)(=O)c2ccc(NC(C)=O)cc2)cc1,> 79 µM (inactive)
24,CC1(c2ccccc2)NC(=O)N(CC(=O)Nc2cccc(/C=C/c3ccccn3)c2)C1=O (centres undefined),> 79 µM (inactive)
